Three compounds from patent US20140045832A1, “Insulin-Like Growth Factor-1 Receptor Inhibitors” (PIRAMAL ENTERPRISES LIMITED, priority 2011, published 2014) can be followed below.

A word on the inhibition: it is the relative decrease from the control value, in per cent.

Where only a bound is given, the exact number is not on record here.

One data set deals with T1, human IGF-1R (Homo sapiens, UniProt P08069).
T1 construct: IGFRK and IRK enzyme used for the assay was intracellular kinase domain of human IGF-1R and human IR; made in house
Description: In vitro IGF-1R kinase assay (HTRF). Format: biochemical. Conditions: intracellular kinase domain GST fusion, ATP 20 μM, 1 hour at 23° C., read-out: IGFIR-Activity. As for the experimental part:
The in vitro kinase assays using IGF-1R and IR kinase GST fusion proteins were conducted using a homogeneous time-resolved fluorescence (HTRF) format. […] The standard enzyme reaction buffer consisted of 50 mM Tris HCL (pH: 7.4), 1 mM EGTA, 10 mM MgCl2, 2 mM DTT, 0.01% Tween-20, IGF-1R/IR kinase enzyme, poly GT peptide substrate (Perkin Elmer [Ulight Glu-Tyr (4:1)]n) and ATP [concentration equivalent to Kmapp]. […] Briefly, 2.5 μL enzyme and 2.5 μL inhibitor was pre-incubated for 10 minutes at 23° C. followed by the addition of 2.5 μL of poly GT substrate (final concentration of 50 nM). Reaction was initiated with the addition of 2.5 μL of ATP (final concentration of 20 μM for IGF-1R assay and 10 μM for IR assay). After 1 hour incubation at 23° C., the kinase reaction was stopped with the addition of 5 μL EDTA (final concentration of 10 mM in 20 μL). Europium cryptate—labeled antiphosphotyrosine antibody PY20 (5 μL) was added (final concentration of 2 nM) and the mixture was allowed to equilibrate for 1 hour at 23° C. followed by reading the plate in an Envision plate reader. The intensity of light emission at 665 nm was directly proportional to the level of substrate phosphorylation. The IC50 values for inhibitors were determined by a four-parameter sigmoidal curve fit (Sigma plot or Graph pad).
IGFRK and IRK enzyme used for the assay was intracellular kinase domain of human IGF-1R and human IR cloned and expressed as GST fusion proteins using the baculovirus expression system and purified using glutathione—Sepharose column.
In general terms: In TR-FRET formats the signal depends on donor and acceptor labels being close together.

For a further data set, the system named is MCF7 cell line. As to the kind of experiment: Anti-proliferative assay (MTS/CCK-8), MCF7. Format: cell-based. Conditions: Homo sapiens; MCF7 (breast cancer) cells, 100 ng/mL IGF without FCS, 72 hours; read-out: Anti-proliferation IC50 (μM) MCF7 cell line. As for the experimental part:
(§1) Anti-proliferative potential of compounds was tested using various cell lines (details provided in Table 2) by MTS (Promega, Cat # G1111), a tetrazolium compound ((3-(4,5-dimethylthiazol-2-yl)-5-(3-carboxymethoxyphenyl)-2-(4-sulphophenyl)-2H-tetrazolium, inner salt; MTS) and Cell Counting kit-8 (CCK-8 a Dojindo's highly water-soluble tetrazolium salt of WST-8 [2-(2-methoxy-4-nitrophenyl)-3-(4-nitrophenyl)-5-(2,4-disulfophenyl)-2H-tetrazolium, monosodium salt]). MTS is a colorimetric assay for determining the number of viable cells in proliferation, cytotoxicity or chemosensitivity assays. This is used with an electron coupling reagent PMS (Phenazine methosulfate). MTS is bioreduced by cells into a formazan that is soluble in tissue culture medium. The absorbance of the formazan at 490 nm can be measured directly from 96 well assay plates without additional processing. Dehydrogenase enzymes found in metabolically active cells accomplish the conversion of MTS into the aqueous soluble formazan. The quantity of formazan product is directly proportional to the number of living cells in culture. In CCK-8, WST-8 is reduced by dehydrogenases in cells to give a yellow colored product formazan, which is measured at 450 nm.
(§2) For experimental purposes, cells were seeded at a density of 3000-5000 cells per well in 180 μL/well volume in transparent 96 well tissue culture plate (NUNC, USA) and incubated overnight at 37° C., 5% CO2. […] Plates were incubated for 3-4 hours and absorbance was measured at 490 nm on Spectrophotometer (SpectraMax, Molecular Devices). Percentage cytotoxicity and IC50 was calculated using SoftMax software. […] After 4 hour incubation, the absorbance was determined at 450 nm using Spectrophotometer (SpectraMax, Molecular Devices). […]

The test system of the next data set is HT29 cell line. As to the kind of experiment: Anti-proliferative assay (MTS/CCK-8), HT29. Format: cell-based. Conditions: Homo sapiens, HT-29; HT29 (colon cancer) cells, 100 ng/mL IGF without FCS, 72 hours; read-out: Anti-proliferation IC50 (μM) HT29 cell line. As for the experimental part: as §1, §2
For another data set, the target named is T2, CYP3A4 (Homo sapiens, UniProt P08684).
T2 construct: purchased Invitrogen (Vivid screening kits)
Description: CYP inhibition fluorescence assay (rhCYP450, Vivid Invitrogen kit). Format: in vitro ADME. Conditions: recombinant human CYP3A4, 10 μM compound, read-out: % inhibition of CYP 3A4 at 10 μM. As for the experimental part:
The % inhibition @ 10 μM data was generated from an rhCYP450/fluorescence assay according to the Vivid Invitrogen screening kits. The compounds were screened against CYP 3A4 isoform because CYP3A4 is responsible for the metabolism of approximately 50-60% of clinical drugs. The lower the percentage inhibition, the lower the CYP450 inhibitory liability of that specific compound.

T1 sequence (P08069 999-1274 limits assumed): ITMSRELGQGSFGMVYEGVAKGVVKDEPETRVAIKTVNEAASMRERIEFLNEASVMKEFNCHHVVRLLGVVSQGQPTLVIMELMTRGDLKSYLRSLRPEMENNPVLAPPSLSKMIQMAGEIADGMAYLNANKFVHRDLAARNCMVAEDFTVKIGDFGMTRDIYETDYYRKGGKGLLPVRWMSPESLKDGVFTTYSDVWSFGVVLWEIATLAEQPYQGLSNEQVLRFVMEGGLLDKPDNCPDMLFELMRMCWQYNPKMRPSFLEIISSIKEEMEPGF
T2 sequence (P08684 whole entry): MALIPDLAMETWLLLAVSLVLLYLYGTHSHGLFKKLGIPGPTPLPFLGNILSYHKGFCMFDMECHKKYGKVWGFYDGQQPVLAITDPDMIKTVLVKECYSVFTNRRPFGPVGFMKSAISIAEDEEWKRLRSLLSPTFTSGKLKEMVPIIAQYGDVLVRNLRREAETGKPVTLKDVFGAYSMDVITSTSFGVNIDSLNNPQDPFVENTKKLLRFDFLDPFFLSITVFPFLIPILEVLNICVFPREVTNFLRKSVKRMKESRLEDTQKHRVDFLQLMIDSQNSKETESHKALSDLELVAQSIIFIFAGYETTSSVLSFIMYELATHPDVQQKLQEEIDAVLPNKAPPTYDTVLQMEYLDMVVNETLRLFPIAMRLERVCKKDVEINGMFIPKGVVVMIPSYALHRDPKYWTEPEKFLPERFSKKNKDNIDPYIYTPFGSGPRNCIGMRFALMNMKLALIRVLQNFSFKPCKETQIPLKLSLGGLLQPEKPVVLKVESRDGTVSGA

Turning to `N#CCCNc1cc(Cl)cc2c(S(=O)(=O)N3CCO[C@H](COc4ccccc4)C3)c(C(N)=O)[nH]c12` [Compound 19, (S)-5-chloro-7-(2-cyanoethylamino)-3-(2-(phenoxymethyl)morpholinosulfonyl)-1H-indole-2-carboxamide], the IC50 was 16 nM on human IGF-1R, less than 1 µM in the data set on MCF7 cell line and 5.3 µM in the data set on HT29 cell line.
Take `NC(=O)c1[nH]c2c(NC3CCOCC3)cc(Cl)cc2c1S(=O)(=O)N1CCO[C@H](COc2ccccc2)C1` [Compound 20, (S)-5-chloro-3-(2-(phenoxymethyl)morpholinosulfonyl)-7-(tetrahydro-2H-pyran-4-ylamino)-1H-indole-2-carboxamide]: the results for the IC50 at human IGF-1R, in the data set with MCF7 cell line and in the data set on HT29 cell line were less than 100 nM, 0.8 µM and 2.8 µM, respectively.
As to `CCOC(=O)N1CCC(Nc2cc(Cl)cc3c(S(=O)(=O)N4CCO[C@H](COc5ccccc5)C4)c(C(N)=O)[nH]c23)CC1` [Compound 34, (S)-ethyl 4-(2-carbamoyl-5-chloro-3-(2-(phenoxymethyl)morpholinosulfonyl)-1H-indol-7-ylamino)piperidine-1-carboxylate], the IC50 on human IGF-1R was 68.5 nM; with MCF7 cell line, 0.9 µM; in the data set on HT29 cell line, 1.7 µM. In addition, at CYP3A4, the inhibition at 10 µM was 47%.
